In article PMC10648541, “Design, Synthesis, and Antiproliferative Activity of Selective Histone Deacetylases 6 Inhibitors Containing a Tetrahydropyridopyrimidine Scaffold” (Molecules, 2023):

Tests used:
HDAC2 = target: T1, HDAC2 (Homo sapiens, UniProt Q92769); assay: In vitro HDAC enzyme assay (Reaction Biology Corporation), HDAC2; format: biochemical; settings: Table 2 isozyme screen; duplicate, SD < 15%
T1 construct: purchased Reaction Biology Corporation

HCT116 = assay: Antiproliferative assay (Alamar blue, 72 h), HCT116; format: cell-based; settings: Homo sapiens, HCT-116, HCT116 cells, three independent experiments, SD < 10%, read-out: Antiproliferative effect IC50, HCT116
RPMI-8226 = assay: Antiproliferative assay (Alamar blue, 72 h), RPMI-8226; format: cell-based, human; settings: Homo sapiens, RPMI-8226 cells, three independent experiments, SD < 10%, read-out: Antiproliferative effect IC50, RPMI-8226
Experimental: The cells were cultured in IMDM (Gibco) medium with 20% FBS (Lonsera), 100 U/mL penicillin, and 100 µg/mL streptomycin (Solarbio). All cells were maintained at 37 °C in a humidified atmosphere of 5% CO2 in air. Briefly, 100 µL cell suspension or completed medium was plated into a 96-well plate. Compounds were added and incubated for 72 h. Then, 22 µL Alamar blue solution (1 mM) was pipetted into each well of a 96-well plate, and the plate was incubated for an additional 5~6 h. The absorbance (OD) was read at 530/590 nm. Data were normalized to vehicle groups (DMSO) and represented as the means of three independent measurements with standard errors of <20%. The IC50 values were calculated using Prism 5.0.

HL60 = assay: NCI-60 antiproliferative screening, HL60; format: cell-based; settings: Homo sapiens, HL-60, HL60 (Leukemia), read-out: Inhibition% values at 10 μM concentration
Description: (§1) Then, 8f was submitted to NCI for antiproliferative evaluation against 59 different tumor cell lines. The cancer types of the NCI-60 program include leukemia, non-small cell lung cancer (NSCLC), colon cancer, CNS cancer, melanoma, ovary cancer, renal cancer, prostate cancer, and breast cancer.

MOLT-4 = assay: NCI-60 antiproliferative screening, MOLT-4; format: cell-based; settings: Homo sapiens, MOLT-4 (Leukemia), read-out: Inhibition% values at 10 μM concentration
Description: as §1

SR = assay: NCI-60 antiproliferative screening, SR; format: cell-based; settings: Homo sapiens, SR (Leukemia), read-out: Inhibition% values at 10 μM concentration
Description: as §1

A549/ATCC = assay: NCI-60 antiproliferative screening, A549/ATCC; format: cell-based; settings: Homo sapiens, A549/ATCC (Non-Small Cell Lung Cancer), read-out: Inhibition% values at 10 μM concentration
Description: as §1

EKVX = assay: NCI-60 antiproliferative screening, EKVX; format: cell-based; settings: Homo sapiens, EKVX (Non-Small Cell Lung Cancer), read-out: Inhibition% values at 10 μM concentration
Description: as §1

HOP-62 = assay: NCI-60 antiproliferative screening, HOP-62; format: cell-based; settings: Homo sapiens, HOP-62 (Non-Small Cell Lung Cancer), read-out: Inhibition% values at 10 μM concentration
Description: as §1

NCI-H23 = assay: NCI-60 antiproliferative screening, NCI-H23; format: cell-based; settings: Homo sapiens, NCI-H23 (Non-Small Cell Lung Cancer), read-out: Inhibition% values at 10 μM concentration
Description: as §1

COLO 205 = assay: NCI-60 antiproliferative screening, COLO 205; format: cell-based; settings: Homo sapiens, COLO 205 (Colon Cancer), read-out: Inhibition% values at 10 μM concentration
Description: as §1

SW-620 = assay: NCI-60 antiproliferative screening, SW-620; format: cell-based; settings: Homo sapiens, SW-620 (Colon Cancer), read-out: Inhibition% values at 10 μM concentration
Description: as §1

SF-295 = assay: NCI-60 antiproliferative screening, SF-295; format: cell-based; settings: Homo sapiens, SF-295 (CNS Cancer), read-out: Inhibition% values at 10 μM concentration
Description: as §1

SNB-75 = assay: NCI-60 antiproliferative screening, SNB-75; format: cell-based; settings: Homo sapiens, SNB-75 (CNS Cancer), read-out: Inhibition% values at 10 μM concentration
Description: as §1

SK-MEL-2 = assay: NCI-60 antiproliferative screening, SK-MEL-2; format: cell-based; settings: Homo sapiens, SK-MEL-2 (Melanoma), read-out: Inhibition% values at 10 μM concentration
Description: as §1

IGROV1 = assay: NCI-60 antiproliferative screening, IGROV1; format: cell-based; settings: Homo sapiens, IGROV-1, IGROV1 (Ovarian Cancer), read-out: Inhibition% values at 10 μM concentration
Description: as §1

OVCAR-3 = assay: NCI-60 antiproliferative screening, OVCAR-3; format: cell-based; settings: Homo sapiens, OVCAR-3 (Ovarian Cancer), read-out: Inhibition% values at 10 μM concentration
Description: as §1

OVCAR-4 = assay: NCI-60 antiproliferative screening, OVCAR-4; format: cell-based; settings: Homo sapiens, OVCAR-4 (Ovarian Cancer), read-out: Inhibition% values at 10 μM concentration
Description: as §1

NCI/ADR-RES = assay: NCI-60 antiproliferative screening, NCI/ADR-RES; format: cell-based; settings: Homo sapiens, NCI/ADR-RES (Ovarian Cancer), read-out: Inhibition% values at 10 μM concentration
Description: as §1

786-0 = assay: NCI-60 antiproliferative screening, 786-0; format: cell-based; settings: Homo sapiens, 786-0 (Renal Cancer), read-out: Inhibition% values at 10 μM concentration
Description: as §1

ACHN = assay: NCI-60 antiproliferative screening, ACHN; format: cell-based; settings: Homo sapiens, ACHN (Renal Cancer), read-out: Inhibition% values at 10 μM concentration
Description: as §1

SN12C = assay: NCI-60 antiproliferative screening, SN12C; format: cell-based; settings: Homo sapiens, SN12C (Renal Cancer), read-out: Inhibition% values at 10 μM concentration
Description: as §1

TK-10 = assay: NCI-60 antiproliferative screening, TK-10; format: cell-based; settings: Homo sapiens, TK-10 (Renal Cancer), read-out: Inhibition% values at 10 μM concentration
Description: as §1

PC-3 = assay: NCI-60 antiproliferative screening, PC-3; format: cell-based; settings: Homo sapiens, PC-3 (Prostate Cancer), read-out: Inhibition% values at 10 μM concentration
Description: as §1

T-47D = assay: NCI-60 antiproliferative screening, T-47D; format: cell-based; settings: Homo sapiens, T47D, T-47D (Breast Cancer), read-out: Inhibition% values at 10 μM concentration
Description: as §1

T1 sequence (Q92769 whole entry): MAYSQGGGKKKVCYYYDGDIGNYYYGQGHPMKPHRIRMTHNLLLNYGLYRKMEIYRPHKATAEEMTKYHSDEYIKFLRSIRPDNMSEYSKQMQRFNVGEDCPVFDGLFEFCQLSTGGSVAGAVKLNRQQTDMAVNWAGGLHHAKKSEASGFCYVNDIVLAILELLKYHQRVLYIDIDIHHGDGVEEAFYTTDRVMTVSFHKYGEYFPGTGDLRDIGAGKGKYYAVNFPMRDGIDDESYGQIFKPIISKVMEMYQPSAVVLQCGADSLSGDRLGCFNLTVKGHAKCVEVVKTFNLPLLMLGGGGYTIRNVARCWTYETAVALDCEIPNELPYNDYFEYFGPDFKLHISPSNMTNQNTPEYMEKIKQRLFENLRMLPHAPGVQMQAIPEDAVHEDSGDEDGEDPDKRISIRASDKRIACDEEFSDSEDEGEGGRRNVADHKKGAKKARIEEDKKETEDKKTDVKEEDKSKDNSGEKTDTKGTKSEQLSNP

COc1cccc(-c2nc3c(c(-c4cccc(OC)c4)n2)CCN(C(=O)CCCCCCC(=O)NO)C3)c1 [Compound 8f, 8-(2,4-Bis(3-methoxyphenyl)-5,8-dihydropyrido [3,4-d]pyrimidin-7(6H)-yl)-N-hydroxy-8-oxooctanamide]
IC50 (HDAC2): 390 nM
IC50 (HCT116): 3250 nM
IC50 (RPMI-8226): 2800 nM
inhibition at 10 µM (HL60): 100%
inhibition at 10 µM (MOLT-4): 87.7%
inhibition at 10 µM (SR): 84.3%
inhibition at 10 µM (A549/ATCC): 87.7%
inhibition at 10 µM (EKVX): 84.4%
inhibition at 10 µM (HOP-62): 99.1%
inhibition at 10 µM (NCI-H23): 100%
inhibition at 10 µM (COLO 205): 100%
inhibition at 10 µM (SW-620): 100%
inhibition at 10 µM (SF-295): 100%
inhibition at 10 µM (SNB-75): 71%
inhibition at 10 µM (SK-MEL-2): 100%
inhibition at 10 µM (IGROV1): 100%
inhibition at 10 µM (OVCAR-3): 100%
inhibition at 10 µM (OVCAR-4): 67.1%
inhibition at 10 µM (NCI/ADR-RES): 100%
inhibition at 10 µM (786-0): 89.1%
inhibition at 10 µM (ACHN): 100%
inhibition at 10 µM (SN12C): 100%
inhibition at 10 µM (TK-10): 100%
inhibition at 10 µM (PC-3): 83.3%
inhibition at 10 µM (T-47D): 100%
